# Measured values: US12103932B2, “Process for preparing substituted imidazo[4,5-c]pyrazoles” (Imam Abdulrahman Bin Faisal University, priority 2021, dated 2024)
# Columns and labels:
# Test in all cases: Paper disk diffusion antibacterial test
# Format in all cases: cell-based
# [1] = system: Pseudomonas aeruginosa ATCC 27853
# Description: (§1) In Vitro antimicrobial activity was evaluated using both gram-positive and gram-negative bacterial strains. The results reproduced here are exemplary and may include other microorganisms such as Escherichia coli, Listeria monocytogenes, Lactobacillus, yeast, vancomycin-resistant Enterococcus, molds, and spores. The in vitro antibacterial activity was evaluated for. gram-positive bacteria (Staphylococcus aureus ATCC 29213 and Staphylococcus epidermidis ATCC 12228) and gram-negative bacteria (Pseudomonas aeruginosa ATCC 27853) obtained from King Fahd Hospital, AlKhobar, Saudi Arabia.
# (§2) Antimicrobial activity of three imidazopyrazole derivatives (1), (2) and (3) were evaluated qualitatively by paper disk diffusion method [CLSI.; Approved Standard, 11th ed.; CLSI document M02-A11; Clinical and Laboratory Standards Institute: Wayne, PA, USA, 2012, incorporated herein by reference in its entirety]. The three chemical materials i.e. compounds (1), (2) and (3) were prepared in different concentrations as follows: 0.01, 0.02, 0.03, 0.05, and 0.1 g/mL in dimethyl sulfoxide (DMSO) and tested directly. Paper discs measured 6 mm in diameter were soaked separately with 100 μL of the chemical materials and were left to dry. Bacterial inoculums were prepared from previous cultures in Muller-Hinton broth. The bacterial cell suspension turbidity was adjusted to a 0.5 McFarland standard, which represented approximately 1-2×10^8 colony-forming units (CFU)/mL using a Biomerieux DensiCHEK plus meter device (Missouri, MO, USA). Bacterial inoculums at 0.5 mL were transferred to petri plates under sterilized conditions. Melted Muller-Hinton agar at approximately 50° C. was poured over the inoculums, and to ensure even distribution of the inoculums, the plates were rotated neatly, then cultures were left to harden for 5 min. Then, previously prepared paper discs, saturated with chemicals, were transferred, using sterilized forceps, to the surface of petri plates that contained the bacterial cultures. Gentamicin (CN10 μg), aminoglycosides antibiotic was used as the positive control and DMSO was used as the negative control. The petri plates were placed in the refrigerator (General Electric, Medford, MA, USA) to allow diffusion of the chemicals into the agar for an hour. Then the petri plates were incubated at 37° C. for 24 h. After the incubation period ended, the area of inhibition around the discs was measured with a ruler. Three replicants were made to ensure the accuracy of the experiment.
# [2] = system: Staphylococcus aureus ATCC 29213
# Description: as §1, §2
# [3] = system: Staphylococcus epidermidis ATCC 12228
# Description: as §1, §2
# [4] = 0.05 g/mL in DMSO, 6 mm paper disc, 37° C. 24 h
# [5] = 0.1 g/mL in DMSO, 6 mm paper disc, 37° C. 24 h
Compound,"zone of inhibition (mm) means ± SD [1, 4] [mm]","zone of inhibition (mm) means ± SD [1, 5] [mm]","zone of inhibition (mm) means ± SD [2, 4] [mm]","zone of inhibition (mm) means ± SD [2, 5] [mm]","zone of inhibition (mm) means ± SD [3, 4] [mm]","zone of inhibition (mm) means ± SD [3, 5] [mm]","zone of inhibition (mm) means ± SD ([1]; positive control, CN10 μg disc) [mm]","zone of inhibition (mm) means ± SD ([2]; positive control, CN10 μg disc) [mm]","zone of inhibition (mm) means ± SD ([3]; positive control, CN10 μg disc) [mm]","area of inhibition zone compared with positive control gentamicin ([2]; at the concentrations 0.05 g/mL and 0.01 g/mL, gentamicin CN10 μg)"
"CCOC(=O)CSC1=NC2C(C)=NN(c3ccccc3)C2=N1 (stereo not shown) [(3), Ethyl 2-((3-Methyl-1-Phenyl-1,3adihydroimidazo[4,5-c] Pyrazol-5-yl)thio) Acetate]",7.3 ± 0.6,7.3 ± 0.6,7.3 ± 0.6,8.7 ± 0.6,7.3 ± 0.6,8.7 ± 0.6,,,,
Gentamicin [reference compound],,,,,,,20.7 ± 1.2,18.7 ± 1.5,21.3 ± 1.2,
"CC1=NN(c2ccccc2)C2=NC(NC(N)=S)=NC12 (stereo not shown) [(2), 1-(3-Methyl-1-Phenyl-1,3a-Dihydroimidazo[4,5-c] Pyrazol-5-yl) Thiourea]",7.7 ± 0.6,8.3 ± 0.6,18.0 ± 0.0,18.7 ± 0.6,8.3 ± 0.6,9.3 ± 0.6,,,,equal to gentamicin
"CC1=NN(c2ccccc2)C2=NC(=S)NC12 (stereo not shown) [(1), 3-Methyl-1-Phenyl-3a,4-Dihydro Imidazo(4,5-c) Pyrazole-5(1H)-Thione]",10.0 ± 1.0,11.0 ± 1.0,7.7 ± 0.6,9.0 ± 1.0,8.3 ± 0.6,8.3 ± 0.,,,,
